# Experimental data published in PMC6176987, “Correction of cognitive deficits in mouse models of Down syndrome by a pharmacological inhibitor of DYRK1A” (Disease Models & Mechanisms, 2018).
# Tests used:
# CDK2/cyclin A = CDK2/cyclin A (Homo sapiens, UniProt P24941); assay: Recombinant protein kinase assay, CDK2/cyclin A; type: biochemical; settings: 15 µM ATP
# CLK2 = CLK2 (Mus musculus, UniProt O35491); assay: Recombinant protein kinase assay, CLK2; type: biochemical
# [1] = Pharmacokinetics and brain biodistribution of L41 after acute i.p. injection; type: in vivo; settings: mouse, ip
# Experimental: To investigate the importance of DYRK1A in cognitive deficits shown by transgenic mouse models of DS, we used a series of low molecular weight pharmacological inhibitors, collectively known as leucettines ([Debdab et al., 2011]; [Tahtouh et al., 2012]; T. Tahtouh, unpublished).
# re S1. Pharmacokinetics and brain biodistribution of L41 following acute intra-
# zoom on the first 8 hours.
# Disease Models & Mechanisms • Supplementary information
# Tg(Dyrk1a) mice = assay: Novel object recognition (NOR) test in Tg(Dyrk1a) mice; type: in vivo, mouse; settings: for Recovery in NOR test: 20 mg/kg daily i.p., 24 h retention delay
# wt mice = assay: Novel object recognition (NOR) test in wt mice; type: in vivo, mouse; settings: 20 mg/kg daily i.p., 5, 12 or 19 days
# Experimental: (§1) Behavioural studies were conducted in 12- to 20-week-old male animals. All assessments were scored blind to genotype and treatment, as recommended by the ARRIVE guidelines ([Karp et al., 2015]; [Kilkenny et al., 2010]). […] The final formulation was prepared just prior to use as a 2 mg/ml solution diluted in PEG300/water (50/45), to reach a final DMSO/PEG300/water 5/50/45 (v/v/v) mix. Treated animals received a daily dose (5, 12 or 19 days) of this formulation by i.p. injection of 20 mg/kg/day. Nontreated animals received the same formulation without L41.
# (§2) The NOR task is based on the innate tendency of rodents to differentially explore a novel object over a familiar one ([Ennaceur and Delacour, 1988]). Day 1 was a habituation session. Mice freely explored the apparatus, a white circular arena (53 cm diameter) placed in a dimly lit testing room (40 lux). On day 2, the acquisition phase, mice were free to explore two identical objects for 10 min. Mice were then returned to their home cage for a 24 h retention interval. […] Object exploration was manually scored and defined as the orientation of the nose to the object at a distance <1 cm. For the retention phase, the percent of time spent exploring familiar versus novel objects was calculated to assess memory performance.
# Dp1Yey mice = assay: Novel object recognition (NOR) test in Dp1Yey mice; type: in vivo, mouse; settings: daily i.p. treatment for 19 days
# Experimental: as §1, §2
# DYRK1A [2] = target: T1, DYRK1A (Mus musculus, UniProt Q61214); assay: Brain DYRK1A catalytic activity after treatment, wt mice; type: in vivo; settings: 19 days daily i.p.
# T1 construct: DYRK1A was purified from brain extracts by immunoprecipitation; from tissue; host or cells: mouse brain (wt, Tg(Dyrk1a), Ts65Dn)
# Experimental: Protein kinase assays to measure the catalytic activity of DYRK1A in the brains of the animals treated with or without drugs were performed as follows: frozen half brains were homogenized in lysis buffer (1.2 ml/half brain) using Precellys® homogenizer tubes. After centrifugation at 2800 g for 2×15 s, 1 mg brain extract was incubated with 2 µg DYRK1A (H00001859 M01, Interchim) or GSK3-β (MBS8508391, Emelca Bioscience, France) antibodies at 4°C for 1 h under gentle rotation. Then, 20 µl protein G agarose beads (Thermo Fisher Scientific, France), previously washed three times with bead buffer (50 mM Tris pH 7.4, 5 mM NaF, 250 mM NaCl, 5 mM EDTA, 5 mM EGTA, 0.1% Nonidet P-40 and protease inhibitor cocktail from Roche, France), were added to the mix and gently rotated at 4°C for 30 min. After a 1 min spin at 10,000 g and removal of the supernatant, the pelleted immune complexes were washed three times with bead buffer, and a last time with Buffer C (60 mM β-glycerophosphate, 30 mM p-nitrophenolphosphate, 25 mM Mops pH 7.2, 5 mM EGTA, 15 mM MgCl2, 2 mM dithiothreitol, 0.1 mM sodium orthovanadate, 1 mM phenylphosphate, protease inhibitor cocktail). DYRK1A or GSK-3 immobilized on beads were assayed in buffer C as described in the Supplementary Materials and Methods with Woodtide ([…]) (1.5 µg/assay) or GSK3-tide ([…]pSED-EEE, where pS stands for phosphorylated serine) as substrates.
# DYRK1A [3] = target: T1, DYRK1A; assay: In vitro kinase activity of DYRK1A immunopurified from mouse brains; type: biochemical; settings: DYRK1A from untreated wt, Tg(Dyrk1a) and Ts65Dn brains, increasing concentrations
# Sequence of CLK2 (O35491 whole entry): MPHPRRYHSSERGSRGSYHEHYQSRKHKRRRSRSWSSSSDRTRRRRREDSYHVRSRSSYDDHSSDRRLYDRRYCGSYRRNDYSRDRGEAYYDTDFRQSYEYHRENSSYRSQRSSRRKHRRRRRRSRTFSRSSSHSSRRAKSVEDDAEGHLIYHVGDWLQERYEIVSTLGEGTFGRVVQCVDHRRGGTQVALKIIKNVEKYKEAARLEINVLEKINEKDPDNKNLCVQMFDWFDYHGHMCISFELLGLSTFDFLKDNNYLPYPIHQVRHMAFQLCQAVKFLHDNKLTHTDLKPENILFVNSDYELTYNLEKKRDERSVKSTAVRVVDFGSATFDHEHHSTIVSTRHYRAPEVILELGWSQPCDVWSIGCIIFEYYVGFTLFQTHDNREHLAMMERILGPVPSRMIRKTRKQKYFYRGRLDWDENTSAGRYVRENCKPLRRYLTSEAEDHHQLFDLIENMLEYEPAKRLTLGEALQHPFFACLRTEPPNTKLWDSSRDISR
compound,measurement,setting,value
O=C1NC(Nc2ccccc2)=N/C1=C\c1ccc2c(c1)OCO2 [L41],IC50,CDK2/cyclin A,> 10000 nM
same,IC50,CLK2,130 nM
same,half-life,"[1]; Tg(Dyrk1a) transgenic and wild-type (wt) mice, plasma",~45 min
same,Blood brain barrier crossing,[1]; in vivo,able to cross the blood brain barrier
same,Differences in pharmacokinetics or biodistribution between transgenic and wt mice,[1]; in vivo,No differences
same,L41 in brain extracts,[1]; in vivo,essentially undetectable
same,Time of maximum brain concentration,[1]; in vivo,20 min
same,Time to elimination from brain after the maximum brain concentration,[1]; in vivo,2 h
same,Recovery in NOR test,Tg(Dyrk1a) mice; 5 days,only marginally
same,Recovery in NOR test,Tg(Dyrk1a) mice; 12 days,consistently
same,Recovery in NOR test,Tg(Dyrk1a) mice; 19 days,fully observed
same,Persistence of NOR rescue,Tg(Dyrk1a) mice; 24 h after the last day of the 19 day treatment,rescuing effect was detectable
same,Persistence of NOR rescue,Tg(Dyrk1a) mice; 48 h after the last day of the 19 day treatment,no rescue
same,Effect on NOR performance of wt animals,wt mice,no effect
same,NOR test outcome,Dp1Yey mice,rescue
same,Effect on brain DYRK1A activity,DYRK1A [2],did not reduce
same,In vitro inhibition of brain DYRK1A,DYRK1A [3],almost fully inhibited
